Some test systems named below: A498; A549; HCT-15; IGROV-1; K562; LOX IMVI; MCF7; MDA-MB-231; NCI-H460; NCI/ADR-RES; OVCAR-5; PC-3; RPMI-8226; RXF 393; SF-268; SK-MEL-2; SK-MEL-5; SW-620; UO-31; DMS-273.
What all share (experiment): NCI anticancer screen, dose series, 48 h

The structures appear in SMILES notation.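 Five compound concentrations were applied to cells in 96-well plates for 48 hours; endpoints were derived by simple linear interpolation of the resulting dose-response curve. Here, GI50 denotes the concentration required for 50% inhibition of growth.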 Calls of active or inactive are those of the source. Cut-off read from the data, not from the text of the source: active = GI50 up to about 1.1 µM and inactive = higher. Where a SMILES comes first, the peptide text is derived from it. [ ]: non-standard residue; d: D form. The star is where a group is joined. NMeF = CN[CH](Cc1ccccc1)C(=O)O; NMeV = CN[CH](C(=O)O)C(C)C; Boc = CC(C)(C)OC(=O)*; OBn = c1ccc(CO*)cc1

In the case of `CN(O)C(=O)c1cccc(Cl)c1`, the GI50 with A498 is > 100 µM (inactive); in the test on A549 it was > 100 µM (inactive); in the test on HCT-15, 56.1 µM; in the test on IGROV-1, 91.8 µM (inactive); in the test on K562, > 100 µM (inactive); in the test with LOX IMVI, > 100 µM (inactive). The GI50 with MCF7 was > 100 µM (inactive); with MDA-MB-231 it was > 100 µM (inactive); in the test with NCI-H460, 95.1 µM (inactive); in the test on NCI/ADR-RES, > 100 µM (inactive); with OVCAR-5, > 100 µM (inactive); in the test on PC-3, > 100 µM (inactive). In addition, the GI50 with RPMI-8226, in the test with RXF 393, in the test with SF-268, with SK-MEL-2, with SK-MEL-5 and in the test on SW-620 was > 100 µM (inactive) in each case. Also, the GI50 in the test with UO-31 was > 100 µM (inactive).
Take `O=C(O)c1ccccc1/C=N/N=C1NCCN1`: the GI50 in the test with A498 was 26.8 µM (inactive); in the test on A549, > 100 µM (inactive); in the test with HCT-15 it was above 100 µM; with IGROV-1 it was > 100 µM (inactive); in the test with K562, > 100 µM (inactive); in the test on LOX IMVI, > 100 µM (inactive). Moreover, the GI50 is 91.2 µM (inactive) in the test on MCF7; > 100 µM (inactive) in the test with MDA-MB-231; > 100 µM (inactive) with NCI-H460; > 100 µM (inactive) in the test with NCI/ADR-RES; > 100 µM (inactive) in the test on OVCAR-5; > 100 µM (inactive) in the test with PC-3. The GI50 is 39.7 µM (inactive) in the test with RPMI-8226; > 100 µM (inactive) with RXF 393; 97.9 µM (inactive) in the test on SF-268; 59.6 µM (inactive) in the test with SK-MEL-2; > 100 µM (inactive) in the test on SK-MEL-5; > 100 µM (inactive) in the test on SW-620. Also, in the test on UO-31, the GI50 is 44.4 µM (inactive).
In the case of `O=C(N/N=C/c1ccc(Cl)cc1)c1ccccc1Nc1ccccc1C(=O)N/N=C/c1ccc(Cl)cc1`, the GI50 was > 100 µM (inactive) in the test with A498; 88.7 µM (inactive) in the test on A549; above 100 µM in the test with HCT-15; > 100 µM (inactive) with IGROV-1; > 100 µM (inactive) in the test on K562; > 100 µM (inactive) with LOX IMVI. The GI50 in the test on MCF7 was > 100 µM (inactive); in the test on MDA-MB-231, 91.6 µM (inactive); in the test on NCI-H460 it was > 100 µM (inactive); with NCI/ADR-RES it was > 100 µM (inactive); with OVCAR-5, 38.6 µM (inactive); in the test on PC-3, > 100 µM (inactive). The GI50 with RPMI-8226, with RXF 393, in the test with SF-268, in the test on SK-MEL-2, with SK-MEL-5 and in the test on SW-620 was > 100 µM (inactive) in each case. Further, in the test with UO-31, the GI50 was > 100 µM (inactive).
As for `CCN1CCc2sc3nc(S)n(C)c(=O)c3c2C1`, the GI50 with A498 was > 100 µM (inactive); in the test with A549, > 100 µM (inactive); in the test on HCT-15, above 100 µM; in the test with IGROV-1, > 100 µM (inactive); with K562 it was > 100 µM (inactive); in the test on LOX IMVI, > 100 µM (inactive). The GI50 in the test with MCF7, in the test with MDA-MB-231, in the test on NCI-H460, with NCI/ADR-RES, in the test with OVCAR-5 and with PC-3 was > 100 µM (inactive) each time. Also, the GI50 in the test on RPMI-8226, with RXF 393, in the test with SF-268, in the test with SK-MEL-2, with SK-MEL-5 and with SW-620 was > 100 µM (inactive) throughout. In the test with UO-31, the GI50 is > 100 µM (inactive).
Take `O=C(CCc1ccccc1)ON1C(=S)NC(c2ccccc2)(c2ccccc2)C1=S`: the GI50 was > 100 µM (inactive) with A498; 37.5 µM (inactive) with A549; 28.4 µM in the test with HCT-15; 25.9 µM (inactive) in the test with IGROV-1; 14.6 µM (inactive) in the test on K562; 21.1 µM (inactive) in the test with LOX IMVI. For the same molecule, the GI50 in the test on MCF7 was 32.9 µM (inactive); with MDA-MB-231, 51.3 µM (inactive); in the test with NCI-H460, 31.6 µM (inactive); in the test with NCI/ADR-RES, 28.5 µM (inactive); with OVCAR-5 it was 61.4 µM (inactive); in the test with PC-3 it was 23.4 µM (inactive). In addition, the GI50 was 29.1 µM (inactive) in the test with RPMI-8226; 36 µM (inactive) in the test with RXF 393; 28.2 µM (inactive) with SF-268; 20.2 µM (inactive) in the test on SK-MEL-2; 19.5 µM (inactive) with SK-MEL-5; 42.4 µM (inactive) in the test on SW-620. Besides, the GI50 in the test with UO-31 was 43.4 µM (inactive).
As for `COc1cc(NS(C)(=O)=O)ccc1NCc1c[nH]c2ccc3ncccc3c12`, the GI50 in the test on A498 is 23.1 µM (inactive); with A549, 27.8 µM (inactive); in the test with HCT-15 it was 21.7 µM; with IGROV-1, 37.1 µM (inactive); in the test with K562, 9.12 µM (inactive); in the test on LOX IMVI, 25.2 µM (inactive). Further, the GI50 was 19.4 µM (inactive) with MCF7; 19.7 µM (inactive) in the test on MDA-MB-231; 18.2 µM (inactive) in the test with NCI-H460; 20.3 µM (inactive) in the test with NCI/ADR-RES; 20.9 µM (inactive) in the test with OVCAR-5; 19.4 µM (inactive) with PC-3. Further, the GI50 in the test on RPMI-8226 is 11.3 µM (inactive); in the test with RXF 393, 5.55 µM (inactive); in the test on SF-268 it was 22.4 µM (inactive); with SK-MEL-2 it was 19.5 µM (inactive); in the test with SK-MEL-5, 12.4 µM (inactive); in the test with SW-620, 26.1 µM (inactive). In addition, the GI50 in the test with UO-31 was 26.4 µM (inactive).
`CCOC(=O)C12CCC(c3c(C)cccc3C)(O1)C(C(=O)OC)=C2C(=O)OC` (stereo not given): the GI50 is 2.14 µM (inactive) with A498; 3.62 µM (inactive) in the test with A549; 4.69 µM with HCT-15; 3.6 µM (inactive) in the test on IGROV-1; 3.62 µM (inactive) with K562; 2.39 µM (inactive) in the test on LOX IMVI. Moreover, the GI50 was 1.3 µM (inactive) in the test on MCF7; 5.07 µM (inactive) in the test with MDA-MB-231; 2.23 µM (inactive) in the test on NCI-H460; > 9.25 µM (inactive) in the test with NCI/ADR-RES; 3.19 µM (inactive) with OVCAR-5; 2.09 µM (inactive) in the test with PC-3. The GI50 in the test on RPMI-8226 was 3.92 µM (inactive); with RXF 393, 4.71 µM (inactive); with SF-268, > 6.89 µM (inactive); in the test with SK-MEL-2 it was > 8.99 µM (inactive); in the test with SK-MEL-5, 0.668 µM (active); with SW-620, 2.07 µM (inactive). In addition, the GI50 in the test on UO-31 was > 10 µM (inactive).
Consider `CC(C)C(NC(=O)OC(C)(C)C)C(=O)N(C)C(Cc1ccccc1)C(=O)N(C)C(C(=O)N(C)C(C(=O)OCc1ccccc1)C(C)C)C(C)C` (stereo not given) (Boc-V[NMeF][NMeV][NMeV]-OBn; configuration not given here), for which the GI50 in the test with A549 is > 100 µM (inactive); with DMS-273, 72.8 µM (inactive); in the test on HCT-15, above 100 µM; in the test on IGROV-1, > 100 µM (inactive); with K562 it was > 100 µM (inactive); in the test with LOX IMVI, > 100 µM (inactive). The GI50 in the test on NCI-H460 was > 100 µM (inactive); in the test on RPMI-8226 it was 10.3 µM (inactive); in the test on SF-268 it was > 100 µM (inactive); in the test with SK-MEL-5 it was 12.5 µM (inactive); in the test with SW-620, > 100 µM (inactive); with UO-31 it was > 100 µM (inactive).

The record behind these values is ChEMBL document CHEMBL1201862, “PubChem BioAssay data set” (2004).
